By IC50 is commonly meant the concentration at which inhibition is half-maximal.

17 compounds from patent US20230063462A1, “SULFONIMIDAMIDE COMPOUNDS AND COMPOSITIONS FOR TREATING CONDITIONS ASSOCIATED WITH NLRP ACTIVITY” (NOVARTIS AG, priority 2019, published 2023) can be followed below.

This experiment has as its system THP-1 cells. Briefly: hTHP-1 assay: gramicidin-stimulated IL-1β detection in PMA-treated THP-1 cells. Format: cell-based, human. As to the method: The following protocol is suitable for testing the activity of the compounds disclosed herein.
1. Experimental procedure • 1.1 Cell Culture • 1) Culture THP-1 cells in the complete RPMI-1640 medium with 10% FBS at 37° C., 5% CO2. • 2) Passage the cells every 3 days by inoculating 3×10^5 cells per ml. • 1.2 Compound Preparation • Prepare the 3-fold serial dilution of the compounds with DMSO in a 384-well LDV Microplate using TECAN EVO system to generate the compound source plate with 10 concentrations. […] HC: 100 μM CRID3 (MCC950)+5 μM gramicidin LC: 5 μM Gramicidin. • 1.5 IL-1β Detection • 1) Homogenize the 5× diluent #5 with a vortex and add 1 volume of stock solution in 4 volumes of distilled water. • 2) Thaw 20× stock solution of anti-IL1β-Cryptate-antibody and anti-IL1β XL-antibody. Dilute these two antibodies to 1× with detection buffer #3. • 3) Pre-mix the two ready-to-use antibody solutions just prior to use. • 4) Dispense 4 ul of pre-mixed Anti-IL1β antibodies working solution into all wells. • 5) Seal the plate and incubate overnight at 4° C. • 6) Read the cell plate using EnVison and plot Readout vs. the test compound concentration to calculate the IC50.
2. Data Analysis: • 1. IC50 of compounds can be calculated using the following formulas • Formula for IC50
% inhibition=100−100×[HCave-Readout/(HCave−LCave)] • 2. Fit the normalized data in a dose-response manner using XLfit, and calculate the compound concentration.

Setting [1] is: Table B1, 2% fetal bovine serum, class symbol, read-out: hTHP-1 IC50.
The mark [2] stands for this setting: Table B1, 2% fetal bovine serum, numeric value, read-out: hTHP-1 IC50.
[3] abbreviates: Homo sapiens, THP-1, Table B1, 2% fetal bovine serum, class symbol, read-out: hTHP-1 IC50.
The mark [4] stands for this setting: Homo sapiens, THP-1, Table B1, 2% fetal bovine serum, numeric value, read-out: hTHP-1 IC50.
The mark [5] stands for this setting: Homo sapiens, THP-1, Table B2, 10% FBS, class symbol, read-out: hTHP-1 IC50 in 10% FBS.
Where [6] appears, read: Homo sapiens, THP-1, Table B2, 10% FBS, numeric value, read-out: hTHP-1 IC50 in 10% FBS.

Where two headings read alike, the source gives them in different places.

For the compound `CC(C)(O)c1ncc(S(=O)(=NC(=O)Nc2c3c(cc4c2CCC4)CCC3)NC#N)s1` (single isomer, unassigned) [Example 27, (S) or (R)-N-cyano-N′-((1,2,3,5,6,7-hexahydro-s-indacen-4-yl)carbamoyl)-2-(2-hydroxypropan-2-yl)thiazole-5-sulfonimidamide], the IC50 is 0.04 to 0.2 µM under setting [1] and 0.0928 µM under setting [2].

In the case of `CC(C)(O)c1ncc(S(=O)(=NC(=O)Nc2c3c(cc4c2CC4)CCC3)NC#N)s1` (single isomer, unassigned) [Example 26, (R) or (S)-N-cyano-2-(2-hydroxypropan-2-yl)-N′-((2,4,5,6-tetrahydro-1H-cyclobuta[f]inden-3-yl)carbamoyl)thiazole-5-sulfonimidamide], the IC50 was 0.008 to 0.04 µM under setting [1] and 0.0135 µM under setting [2].

In the case of `CC(C)(O)c1csc(S(=O)(=NC(=O)Nc2c3c(cc4c2CCC4)CCC3)NC#N)c1` (single isomer, unassigned) [Example 2, (R) or (S)-N-cyano-N′-((1,2,3,5,6,7-hexahydro-s-indacen-4-yl)carbamoyl)-4-(2-hydroxypropan-2-yl)thiophene-2-sulfonimidamide], the IC50 under setting [1] fell in the range of 0.008 to 0.04 µM and the IC50 under setting [2] came to 0.0146 µM.

For `CC(C)c1cc(C#N)cc(C(C)C)c1NC(=O)N=S(=O)(NC#N)c1sc(C(C)(C)O)nc1CO` (single isomer, unassigned) [Example 22, (R) or (S)-N-cyano-N′-((4-cyano-2,6-diisopropylphenyl)carbamoyl)-4-(hydroxymethyl)-2-(2-hydroxypropan-2-yl)thiazole-5-sulfonimidamide], the IC50 under setting [3] lay within 0.04 to 0.2 µM and the 50% inhibitory concentration (IC50) under setting [4] is 0.0792 µM.

As to `CC(C)(O)c1nc(CO)c(S(=O)(=NC(=O)Nc2c3c(nc4c2CCC4(C)C)CCC3)NC#N)s1` (single isomer, unassigned) [Example 13, (R) or (S)-N-cyano-N′-((3,3-dimethyl-1,2,3,5,6,7-hexahydrodicyclopenta[b,e]pyridin-8-yl)carbamoyl)-4-(hydroxymethyl)-2-(2-hydroxypropan-2-yl)thiazole-5-sulfonimidamide], the IC50 was 0.04 to 0.2 µM under setting [3] and 0.112 µM under setting [4].

Take `CC(C)c1cc(C#N)c(F)c(C(C)C)c1NC(=O)N=S(=O)(NC#N)c1cnc(C(C)(C)O)s1` (single isomer, unassigned) [Example 21, (R) or (S)-N-cyano-N′-((4-cyano-3-fluoro-2,6-diisopropylphenyl)carbamoyl)-2-(2-hydroxypropan-2-yl)thiazole-5-sulfonimidamide]: the IC50 is 0.04 to 0.2 µM under setting [1] and 0.0508 µM under setting [2].

As for `Cc1oc(S(=O)(=NC(=O)Nc2c(C(C)C)cc(F)cc2C(C)C)NC#N)cc1C(C)(C)O` (single isomer, unassigned) [Example 10, (S) or (R)-N-cyano-N′-((4-fluoro-2,6-diisopropylphenyl)carbamoyl)-4-(2-hydroxypropan-2-yl)-5-methylfuran-2-sulfonimidamide], the IC50 is 1 to 5 µM under setting [1] and 2.44 µM under setting [2].

Regarding `CC1CCc2c1nc1c(c2NC(=O)N=S(=O)(NC#N)c2cc(C(C)(C)O)cs2)CCC1` (single isomer, unassigned) [Example 16, (R,R) or (R,S)-N-cyano-4-(2-hydroxypropan-2-yl)-N′-(((S)-3-methyl-1,2,3,5,6,7-hexahydrodicyclopenta[b,e]pyridin-8-yl)carbamoyl)thiophene-2-sulfonimidamide], the IC50 under setting [1] is 0.2 to 1 µM and the IC50 under setting [2] worked out at 0.204 µM.

On to `N#CNS(=O)(=NC(=O)Nc1c2c(cc3c1CCC3)CCC2)c1ccccc1` (single isomer, unassigned) [Example 34, (R) or (S)-N-cyano-N′-((1,2,3,5,6,7-hexahydro-s-indacen-4-yl)carbamoyl)benzenesulfonimidamide], for which the half-inhibitory concentration (IC50) is 0.2 to 1 µM under setting [1] and 0.355 µM under setting [2].

`CC(C)(O)c1csc(S(=O)(=NC(=O)Nc2c3c(cc4c2CC4)CCC3)NC#N)c1` (single isomer, unassigned) [Example 7, (S) or (R)-N-cyano-4-(2-hydroxypropan-2-yl)-N′-((2,4,5,6-tetrahydro-1H-cyclobuta[f]inden-3-yl)carbamoyl)thiophene-2-sulfonimidamide]: the half-inhibitory concentration (IC50) under setting [1] is less than 0.008 µM and the IC50 under setting [2] came to 0.0068 µM.

In the case of `CC1CCc2c1nc1c(c2NC(=O)N=S(=O)(NC#N)c2cc(C(C)(C)O)cs2)CCC1` (single isomer, unassigned) [Example 17, (R,S) or (R,R)-N-cyano-4-(2-hydroxypropan-2-yl)-N′-(((R)-3-methyl-1,2,3,5,6,7-hexahydrodicyclopenta[b,e]pyridin-8-yl)carbamoyl)thiophene-2-sulfonimidamide], the half-inhibitory concentration (IC50) runs as follows: under setting [1], 1 to 5 µM; under setting [2], 1.24 µM.

With `CC1CCc2c1nc1c(c2NC(=O)N=S(=O)(NC#N)c2cc(C(C)(C)O)cs2)CCC1` (single isomer, unassigned) [Example 18, (S,S) or (S,R)-N-cyano-4-(2-hydroxypropan-2-yl)-N′-(((S)-3-methyl-1,2,3,5,6,7-hexahydrodicyclopenta[b,e]pyridin-8-yl)carbamoyl)thiophene-2-sulfonimidamide], the half-inhibitory concentration (IC50) by setting is: under setting [1], 0.04 to 0.2 µM; under setting [2], 0.0803 µM.

As to `NS(=O)(=NC(=O)Nc1c2c(nc(C(F)(F)F)c1C1CC1)CCC2)c1ccn(C2CC2)n1` (racemic) [Example 899, (S) or (RS)-1-cyclopropyl-N′-((3-cyclopropyl-2-(trifluoromethyl)-6,7-dihydro-5H-cyclopenta [b]pyridin-4-yl)carbamoyl)-1H-pyrazole-3-sulfonimidamide], the IC50 by setting is: under setting [5], 5 to 30 µM; under setting [6], 9.96 µM.

In the case of `CN(C)Cc1ccc(S(=O)(=NC(=O)Nc2c3c(cc4c2CCC4)CCC3)NC#N)c(F)c1` (single isomer, unassigned) [Example 14, (S) or (R)-N-cyano-4-((dimethylamino)methyl)-2-fluoro-N′-((1,2,3,5,6,7-hexahydro-s-indacen-4-yl)carbamoyl)benzenesulfonimidamide], the IC50 reads like this: under setting [1], 0.04 to 0.2 µM; under setting [2], 0.973 µM.

Take `NS(=O)(=NC(=O)Nc1c2c(nc(C(F)(F)F)c1C1CC1)CCC2)c1ccn(C2CC2)n1` (single isomer, unassigned) [Example 898, (R) or (S)-1-cyclopropyl-N′-((3-cyclopropyl-2-(trifluoromethyl)-6,7-dihydro-5H-cyclopenta [b]pyridin-4-yl)carbamoyl)-1H-pyrazole-3-sulfonimidamide]: the IC50 by setting is: under setting [5], 0.04 to 0.2 µM; under setting [6], 0.114 µM.

For the compound `N#CNS(=O)(=NC(=O)Nc1c2c(cc3c1CCC3)CCC2)c1ccccc1` (single isomer, unassigned) [Example 33, (S) or (R)-N-cyano-N′-((1,2,3,5,6,7-hexahydro-s-indacen-4-yl)carbamoyl)benzenesulfonimidamide], the IC50 was 1 to 5 µM under setting [1] and 1.53 µM under setting [2].

For `CC(C)(O)c1ncc(S(=O)(=NC(=O)Nc2c3c(cc4c2CCC4)CCC3)NC#N)s1` (single isomer, unassigned) [Example 28, (R) or (S)-N-cyano-N′-((1,2,3,5,6,7-hexahydro-s-indacen-4-yl)carbamoyl)-2-(2-hydroxypropan-2-yl)thiazole-5-sulfonimidamide], the half-maximal inhibitory concentration (IC50) by setting is: under setting [1], 0.008 to 0.04 µM; under setting [2], 0.0308 µM.
